From patent US20050175535A1 (CV Therapeutics, Inc., priority 2000, published 2005) come the findings set out here.

In experiment [1] the test system is rat isolated perfused heart. As to the kind of experiment: Coronary conductance / coronary perfusion pressure in isolated perfused rat hearts. Particulars: for EC50: Rattus norvegicus; for effect on coronary conductance: isolated rat hearts, in words. The procedure:
Briefly, rats of either sex weighing 230-260 grams were anesthetized by intraperitoneal injection of a mixture of ketamine (100 mg/ml) and xylazine (20 mg/ml). The chest of each rat was opened and the heart removed, and rinsed in ice-cold modified Krebs-Henseleit (K-H) solution containing NaCl 117.9, KCl 4.5, CaCl2 2.5, MgSO4 1.18, KH2PO4 1.18, pyruvate 2.0 mmo/L. The aorta was cannulated and the heart was perfused at a flow rate of 10 ml/min with modified K-H solution. The K-H solution (pH 7.4) was gassed continuously with 95% O2 and 5% CO2 and warmed to 35±0.5° C. The heart was electrically paced at a fixed cycle length of 240 ms (250 beats/min) using a bipolar electrode placed in the left atrium. The electrical stimuli were generated by a Grass stimulator (Model S48, W. Warwick, R.I.) and delivered through a Stimuli Isolation Unit (Model SIU5, Astro-Med, Inc., NY) as square-wave pulses of 3-msec in duration and with an amplitude of at least twice the threshold intensity.
The identity of the adenosine receptor subtype (A1 or A2A) mediating the coronary vasodilation was determined.
Coronary perfusion pressure (CPP) was measured using a pressure transducer that was connected to the aortic cannula via a T-connector positioned approximately 3 cm above the heart. CPP was monitored throughout an experiment and recorded either on a chart recorder (Gould Recorder 2200S, Valley View, Ohio) or a computerized recording system (PowerLab/4S, ADInstruments Pty Ltd, Australia). Only hearts with CPP ranging from 60 to 85 mmHg (in the absence of drugs) were used in the study. CC conductance (in ml/min/mmHg) was calculated as the ratio between coronary perfusion rate (10 ml/min) and CPP.

In a further experiment the target is A2A adenosine receptors (Sus scrofa, UniProt K9IW67). Kind of experiment: Competitive radioligand binding, [3H]ZM241385, pig striatum membranes. The procedure:
Membranes were also obtained from porcine striatial cells as follows. […] The homogenate was filtered through cotton gauze and centrifuged at 48,000g for 15 minutes at 4° C. […] The final pellet was frozen at −80° C. until used for receptor binding assays.

In experiment [2] the target is T1, human A1 adenosine receptors (Homo sapiens, UniProt P30542).
T1 construct: expressed in transfected cells
T1 sequence (P30542 1-326): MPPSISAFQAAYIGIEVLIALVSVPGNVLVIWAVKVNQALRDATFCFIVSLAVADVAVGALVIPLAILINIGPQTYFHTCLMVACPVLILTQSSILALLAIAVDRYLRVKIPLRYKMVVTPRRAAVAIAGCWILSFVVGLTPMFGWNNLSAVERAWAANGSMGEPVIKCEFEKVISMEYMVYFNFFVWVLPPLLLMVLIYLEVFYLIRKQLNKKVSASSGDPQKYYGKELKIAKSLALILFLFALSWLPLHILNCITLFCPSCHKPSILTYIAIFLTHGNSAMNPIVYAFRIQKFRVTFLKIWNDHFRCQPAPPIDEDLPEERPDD
Kind of experiment: Competitive radioligand binding, [3H]CPX, CHO-hA1AdoR membranes. To be noted: for Ki: [3H]CPX; for affinity for the A1 receptor expressed by CHO-K1 cells: in words. How it is done: The cell suspensions were homogenized and centrifuged at 48,000g for 15 minutes. The pellets were washed three times by re-suspension in ice-cold Tris-HCl buffer and centrifugation. The final pellet was re-suspended in Tris-HCl, aliquoted and frozen at −80° C. until used for receptor binding assays.

Experiment [3] addresses T2, human A2B adenosine receptors (Homo sapiens, UniProt P29275).
T2 construct: expressed in transfected cells
T2 sequence (P29275 1-332): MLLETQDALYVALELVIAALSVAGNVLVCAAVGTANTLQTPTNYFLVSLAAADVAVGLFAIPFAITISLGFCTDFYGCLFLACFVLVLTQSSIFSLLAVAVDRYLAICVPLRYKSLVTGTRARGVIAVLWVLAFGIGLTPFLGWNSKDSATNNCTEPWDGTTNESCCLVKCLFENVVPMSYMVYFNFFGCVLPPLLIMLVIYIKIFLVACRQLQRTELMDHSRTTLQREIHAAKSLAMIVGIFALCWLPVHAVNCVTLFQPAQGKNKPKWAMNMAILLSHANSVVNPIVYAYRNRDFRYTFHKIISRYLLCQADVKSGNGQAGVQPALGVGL
Kind of experiment: cAMP accumulation in HEK-293 cells expressing A2B adenosine receptors. Particulars: up to 100 μM. The experiment is classed as cell-based. Background: cAMP levels reflect the balance of adenylyl cyclase and phosphodiesterase activity.

[4] abbreviates: read-out: EC50, Coronary Conductance (Rat Isolated Heart).
Where [5] appears, read: read-out: pEC50 ± SEM, Coronary Conductance (Rat Isolated Heart) (converted).
The mark [6] stands for this setting: [3H]ZM241385, Gpp(NH)p present, read-out: pKi ± SEM, Pig Strialum (A2A) (converted).
Setting [7] is: read-out: binding affinity to A2A receptors in pig striatum (Ki).
Where [8] appears, read: read-out: pKi ± SEM, CHO-hA1AdoR (converted).

Like-named read-outs stand apart in the source and are kept apart here. Bounds are passed on as bounds.

Sequence of A2A adenosine receptors (K9IW67 1-409): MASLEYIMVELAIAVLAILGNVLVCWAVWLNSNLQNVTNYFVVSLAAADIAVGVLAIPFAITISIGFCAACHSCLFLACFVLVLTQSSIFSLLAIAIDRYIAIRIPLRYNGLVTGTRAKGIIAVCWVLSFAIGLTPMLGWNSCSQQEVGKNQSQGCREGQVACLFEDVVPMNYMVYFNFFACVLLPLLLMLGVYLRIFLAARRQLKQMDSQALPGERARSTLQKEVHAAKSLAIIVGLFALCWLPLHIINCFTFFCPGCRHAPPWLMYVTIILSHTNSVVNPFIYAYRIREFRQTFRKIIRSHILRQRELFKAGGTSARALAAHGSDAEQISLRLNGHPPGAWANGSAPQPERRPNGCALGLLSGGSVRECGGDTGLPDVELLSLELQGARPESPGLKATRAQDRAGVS

`Nc1ncnc2c1ncn2[C@@H]1O[C@H](CO)[C@@H](O)[C@H]1O` [Adenosine, adenosine, reference compound]: the EC50 in experiment [1] (setting [4]) was 0.0592 µM; in experiment [1] (setting [5]), 0.0575 µM. In addition, the “effect on coronary conductance” value in experiment [1] is on record as “concentration-dependent increases in coronary conductance”.

For `CNC(=O)c1cnn(-c2nc(N)c3ncn(C4O[C@@H](CO)[C@H](O)[C@@H]4O)c3n2)c1` (some centres unmarked) [CVT-3146], the Ki is 1.12 µM at A2A adenosine receptors (setting [6]); 1.1 µM at A2A adenosine receptors (setting [7]); more than 16.5 µM in experiment [2] (read-out: Ki, CHO-hA1AdoR); 25.7 µM in experiment [2] (setting [8]). Besides, in experiment [2], the “affinity for the A1 receptor expressed by CHO-K1 cells” value was “relatively low affinities”. The “effect on cellular cAMP content” value in experiment [3] is on record as “neither CVT-3033 nor CVT-3146 had any detectable effects”. Moreover, the “decrease in coronary perfusion pressure” value in experiment [1] (10 nM, isolated rat heart) is 23 mmHg. Moreover, in experiment [1] (CVT-3146 10 nM), the “effect of 60 nM CPX (A1 antagonist) on the increase in coronary conductance” value is given as “not affected”. For the same molecule, the “effect of 60 nM ZM241385 (A2a antagonist) on the increase in coronary conductance” value in experiment [1] (CVT-3146 10 nM) was “completely reversed”. In experiment [1] (CVT-3146 10 nM, baseline 0.16±0.02, n=6 hearts), the coronary conductance stood at 0.22±0.01 ml mm Hg−1 min−1. The results for the EC50 in experiment [1] (setting [4]) and in experiment [1] (setting [5]) were 0.0064 µM and 0.00646 µM, respectively. For the same molecule, the “agonist behaviour with respect to coronary artery conductance” value in experiment [1] (isolated rat heart) was “full agonist”. Also, the “effect on coronary conductance” value in experiment [1] was “increased coronary conductance in a concentration-dependent manner”.

Take `CCCCCn1cc(-c2nc(N)c3ncn(C4O[C@@H](CO)[C@H](O)[C@@H]4O)c3n2)cn1` (some centres unmarked) [CVT-3033]: the Ki at A2A adenosine receptors (setting [6]) was 2.14 µM; on A2A adenosine receptors (setting [7]) it was 1.42 µM; in experiment [2] (read-out: Ki, CHO-hA1AdoR), 5.84 µM; in experiment [2] (setting [8]), 5.75 µM. The “affinity for the A1 receptor expressed by CHO-K1 cells” value in experiment [2] is “relatively low affinities”. Further, the “effect on cellular cAMP content” value in experiment [3] is given as “neither CVT-3033 nor CVT-3146 had any detectable effects”. Moreover, the EC50 was 0.068 µM in experiment [1] (setting [4]) and 0.0646 µM in experiment [1] (setting [5]). Further, in experiment [1], the “effect on coronary conductance” value is given as “increased coronary conductance in a concentration-dependent manner”.
